# Data: US7101915B1, “P-terphenyl compounds” (Shionogi & Co., Ltd., priority 1996, dated 2006)
# Marks after values point to notes of the source that are not given here.
# Experiments:
# [1] = tested on: anti-OVA IgE antibody titer (PCA titer); experiment: Suppressive effect on the IgE production against ovalbumin (OVA), PCA titer; assay type: in vivo, BALB/c mice; conditions: untreated group 9-12
# Experimental: Experiment 4 Suppressive Effect on the IgE Production Against Ovalbumin (OVA)
# BALB/c mice (female, 8-10 weeks old) and Wistar rats (female, 8-10 weeks old) which were bought from Japan SLC, Inc. (Shizuoka) were used.
# BALB/c mice were immunized by an intraperitoneal administration of 0.2 ml suspension of 2 μg of ovalbumin (OVA) and 2 mg of aluminium hydroxide gel in physiological saline. After 10 days, blood was drawn from hearts, sera were separated and stocked at −40° C. till the measurement of an IgE antibody titer.
# After the compound of the present invention was dissolved or suspended in N, N-dimethylacetoamide, the mixture was diluted 20 times with miglyol 812 neutral oil. The obtained solution was orally administered to mice at 0.1 ml per mouse. The administration was continued for 10 days from the immunizing day to the day before drawing blood. IPD-1151-T (a compound described in Jpn. Pharmacol. (1993) 61, 31–39) and a compound No. 36 (a compound 36 described in J. Med. Chem. (1997) 40: 395–407) were examined as controls by the same method.
# 4) Measurement of Anti-OVA IgE Antibody Titer (PCA Titer)
# The samples 2-fold diluted with physiological saline were prepared from the obtained mouse serum and each 50 μl of the solution was intradermally injected to backs of Wistar rats which previously hair cut. After 24 hours, a passive cutaneous anaphylaxis reaction (PCA) was induced by an intravenous injection of 0.5 ml of physiological saline containing 1 mg of OVA and 5 mg of Evans' blue dye. After 30 minutes, the rats were sacrified and the highest dilution rate of the serum giving bluing with a diameter of more than 5 mm was recorded as the PCA titer. For example, when a serum is positive for the PCA reaction till […], the anti-OVA IgE antibody titer of the mouse is defined as 7.
# [2] = tested on: IgG2a production of mouse spleen lymphocytes; experiment: Suppressive effect on antibody production of mouse spleen lymphocytes: IgG2a; assay type: cell-based, BALB/c (nu/nu) mice; conditions: LPS + IL-4, 10 days
# Experimental: (§1) Experiment 6 Suppressive Effect on Antibody Production of Mouse Spleen Lymphocytes 1. Experimental Method 1) Animals
# (§2) BALB/c (nu/nu) mice were bought from Japan SLC, Inc. (Shizuoka) and 7 weeks old-male mice were used.
# (§3) RPMI medium (Nissui Pharmaceutical Co., Ltd.) containing 10% fetal bovine serum (HyClone Lab.) inactivated at 56° C. for 30 minutes, penicillin (100 units/ml) and streptomycin (100 μg/ml) (GIBCO) was used for experiments.
# (§4) Each of the compounds was dissolved in dimethylsulfoxide (Nakaraitesk) at […] and diluted with the medium to adjust a final concentration to 0.1 μg/ml −10 μg/ml.
# (§5) 4) Mouse Spleen Lymphocytes […]
# (§6) In 96-well cultivating plate (Sumitomo Bakelite Company Limited) mouse spleen lymphocytes were inoculated 2×10^5 cells per well. […] After the cultivation for 10 days, the amount of the antibody in a supernatant was quantified by ELISA method.
# (§7) 7) Quantification of the IgG1, IgG2a and IgM Antibodies
# (§8) In 96-well plate 50 μl of 10 μg/ml Goat Anti-Mouse Ig (IgM+G+A, H+ L) (Southern Biotechnology, Birmingham) was added and the plate was coated at 4° C. overnight. […] After washing three times with PBST, 100 μl of culture supernatant which was diluted with PBS or 100 μl of an antibody standard solution (Mouse IgG1 standard, Mouse IgG2a standard, Mouse IgM standard, BETHYL Laboratories) of a pre-determined concentration was added and incubated for 1 hour. […]
# [3] = tested on: IgG1 production of mouse spleen lymphocytes; experiment: Suppressive effect on antibody production of mouse spleen lymphocytes: IgG1; assay type: cell-based, BALB/c (nu/nu) mice; conditions: LPS + IL-4, 10 days
# Experimental: as §1, §2, §3, §4, §5, §6, §7, §8
# [4] = tested on: IL-4 production of mouse T cell strain EL-4 (TPA); experiment: Suppressive effect on the cytokine production of mouse T cell strain EL-4: IL-4; assay type: cell-based; conditions: EL-4, TPA 10 ng/ml, 24 hours, ELISA
# Experimental: (§9) Experiment 8 Suppressive Effect on the Cytokine Production of a Mouse T Cell Strain EL-4 In 48-well plate were added 2×10^5 mouse T cell strain EL-4 which were suspended in 0.2 ml of 1% fetal bovine serum-added RPMI 1640 medium (2 mM of sodium bicarbonate, 50 units/ml of penicillin, 50 μg/ml of streptomycin and 5×10^−5 M of 2-mercaptoethanol were added) and the compound of the present invention of a predetermined concentration. TPA was added as a cell stimulater at a final concentration of 10 ng/ml to adjust a final volume of each well to 0.4 ml. Each compound of the present invention was dissolved in DMSO and diluted with the above RPMI 1640 medium, and then for added at a final concentration of 100 ng/ml or less. The cells in the 48-well plate were cultivated in an incubator keeping the humidity 100%, carbon dioxide 5% and air 95% at 37° C. for 24 hours to collect a supernatant of each well. The amount of IL-2, IL-4 and IL-5 released in the medium of each well were measured with the ELISA kit (Amersham K. K.) to be taken as an index of the cytokine production of the cells. TPA free group (-TPA) was used as a control.
# [5] = tested on: IL-5 production of mouse T cell strain EL-4 (TPA); experiment: Suppressive effect on the cytokine production of mouse T cell strain EL-4: IL-5; assay type: cell-based; conditions: EL-4, TPA 10 ng/ml, 24 hours, ELISA
# Experimental: as §9
# [6] = tested on: IgE production of mouse spleen lymphocytes (lipopolysaccharide, IL-4); experiment: Suppressive effect on antibody production of mouse spleen lymphocytes: IgE; assay type: cell-based, BALB/c (nu/nu) mice; conditions: LPS + IL-4, 10 days
# Experimental: as §1, §2, §3, §4
# 4) Mouse Spleen Lymphocytes
# A spleen of mouse was taken out and put in a cultivating schale which was filled with Hanks' solution. The spleen was crushed and the cells were pushed out from the organ and filtered through a metal mesh (200 mesh). After the collected cell suspension was washed by centrifugation with sterile Hanks' solution (Nissui Pharmaceutical Co., Ltd.), sterile distilled water was added. […]
# as §6
# 6) Quantification of the IgE Antibody
# A commercial mouse IgE EIA kit (Yamasa Shoyu Co., Ltd.) was used for the quantification of the IgE. […]
# [7] = tested on: IL-2 production of mouse T cell strain EL-4 (TPA); experiment: Suppressive effect on the cytokine production of mouse T cell strain EL-4: IL-2; assay type: cell-based; conditions: EL-4, TPA 10 ng/ml, 24 hours, ELISA
# Experimental: as §9
# [8] = tested on: IgM production of mouse spleen lymphocytes; experiment: Suppressive effect on antibody production of mouse spleen lymphocytes: IgM; assay type: cell-based, BALB/c (nu/nu) mice; conditions: LPS + IL-4, 10 days
# Experimental: as §1, §2, §3, §4, §5, §6, §7, §8
# [9] = tested on: C3H/HeN mouse splenocytes stimulated with Concanavalin A (Con A); experiment: Suppressive effect on mitogenic activity of mouse splenocytes in vitro, Con A as mitogen (MTT); assay type: cell-based; conditions: Con A 5 μg/ml as mitogen, 3 days
# Experimental: (§10) Experiment 1 Suppressive Effect on a Mitogenic Activity of Mouse Splenocytes In Vitro
# (§11) In 96-well microtiter plate 5×10^5 C3H/HeN mouse splenocytes suspended in 0.1 ml of 10% fetal bovine serum-fortified RPMI 1640 medium containing 2 mM of sodium bicarbonate, 50 units/ml of penicillin, 50 μg/ml of streptomycin and 5×10^−5 M of 2-mercaptoethanol were added. Then, 5 μg/ml of Concanavalin A (Con A) or 10 μg/ml of lipopolysaccharide (LPS) as a mitogen and the compound of a pre-determined concentration of the present invention were added to each well so that a final volume of each well reached 0.2 ml. Each compound of the present invention was dissolved in dimethylsulfoxide (DMSO) and diluted with the above RPMI 1640 medium to adjust the final concentration of 100 ng/ml or less. The splenocytes in the 96-well microtiter plate were cultivated at 37° C. for 3 days in an incubator keeping the humidity 100%, carbon dioxide 5% and air 95%. Then, 25 μl of 6 mg/ml MTT [3-(4,5-dimethylthiazol-2-yl)-2,5-diphenyltetrazolium bromide] (Sigma) was added to the each well and cultivated at 37° C. for 4 hours under the same conditions. After the cultivation, 50 μl of 0.02 N hydrochloric acid in 20% sodium dodecyl sulfate (SDS) was added to formazan generated and left at 37° C. for 24 hours for dissolving formazan. An absorption intensity (OD) of formazan generated in proportion to the number of living cells was measured with an immunoreader (InterMed) equipped with a 570 nm filter (The Journal of Immunological Method, 65, 55-63, 1983). The 50% inhibitory concentration of a cell proliferation (IC 50) was calculated from a correlation between the concentration of the compound of the present invention and the absorption intensity.
# [10] = tested on: mouse thymoma strain EL4 cells; experiment: Anti-proliferative activity on EL4 cells (MTT); assay type: cell-based; conditions: 3 days
# Experimental: Experiment 2 Anti-Proliferative Activity on EL4 Cells
# In 96-well microtiter plate 4×10^4/0.1 ml of mouse thymoma strain EL4 cells were added and 0.1 ml of the compound of the present invention was added to the mixture so that the concentration was in the range of 0-5,000 ng/ml. After the cultivation for 3 days, the IC50 was calculated by the MTT method as described in Experiment 1.
# [11] = tested on: C3H/HeN mouse splenocytes stimulated with lipopolysaccharide (LPS); experiment: Suppressive effect on mitogenic activity of mouse splenocytes in vitro, LPS as mitogen (MTT); assay type: cell-based; conditions: LPS 10 μg/ml as mitogen, 3 days
# Experimental: as §10, §11
# [12] = tested on: BGG-specific IgE in a serum; experiment: Suppressive effect on the antibody production against bovine γ globulin (BGG), sandwich ELISA; assay type: in vivo, BALB/c mice; conditions: 100 mg/kg p.o. every day, serum after 21 days
# Experimental: Experiment 3 Suppressive Effect on the Antibody Production Against Bovine γ Globulin (BGG)
# On an immunizing day and 7 days after, 50 μg of BGG was subcutaneously inoculated to backs of BALB/c mice (male, 6-8 weeks old) for inducing an immune reaction. After the compound of the present invention was dissolved or suspended in N, N-dimethylacetoamide, the mixture was diluted with miglyol 812 neutral oil. A proper volume of the compound was orally administered (p.o.) to mice every day from the next day of the immunizing. A two hundredth weight to body weight of miglyol was administered to mice in a control group. After 21 days, blood was drawn from each mouse and a serum was separated. BGG-specific IgE in a serum was measured by the sandwich ELISA method using a BGG-coating plate. The suppressive rate of IgE production was calculated from the dilution rate of the serum which has the same absorption intensity as that of the control group for judging the effect of the compound of the present invention.
smiles,measurement,setting,value
"CCOCC(O)COc1ccc(NC(=O)CC[S+](C)C)cc1.Cc1ccc(S(=O)(=O)[O-])cc1 (centres unmarked) [IPD-1151-T, Suplatast Tosilate, reference compound]",PCA Titer,[1]; 50 mg/kg orally for 10 days,9.8
O=C(Cc1ccc(Oc2ccc3cc(OCc4ccccc4)ccc3c2)cc1)Nc1ccccc1C(=O)O [No.36],PCA Titer,[1]; 10 mg/kg orally for 10 days,10.4
COc1cc(-c2ccc(OCC=C(C)C)c(F)c2)c(OC)cc1-c1ccc(O)cc1 [Compound I-73],IC50 IgG2a,[2],4900 ng/mL
same,IC50 IgG1,[3],2600 ng/mL
same,IC50 IL-4,[4],20 ng/mL
same,IC50 IL-5,[5],15 ng/mL
same,IC50 IgE,[6],0.044 ng/mL
same,IC50 IL-2,[7],500 ng/mL
same,IC50 IgM,[8],4200 ng/mL
COc1cc(-c2ccc(NCC=C(C)C)c(F)c2)c(OC)cc1-c1ccc(N(C)C)cc1 [Compound I-484],ConA IC50,[9],14.7 ng/mL
same,EL-4 IC50,[10],91.4 ng/mL
same,PCA Titer,[1]; 40 mg/kg orally for 10 days,<0
same,LPS IC50,[11],32.2 ng/mL
CC(C)=CCNc1ccc(-c2cc(C)c(-c3ccc(N(C)C)cc3)cc2C)cc1F [Compound I-925],melting point,,100 to 102 °C
same,PCA Titer,[1]; 40 mg/kg orally for 10 days,1**
COc1cc(-c2ccc(O)cc2)c(OC)c(O)c1-c1ccc(OCC=C(Br)Br)c(O)c1 [Compound I-931],melting point,,166 to 168 °C
same,IC50,"[9]; Mus musculus, Splenocyte, 72 h, read-out: ConA IC50",2.93 ng/mL
same,IC50,"[10]; Mus musculus, 72 h, read-out: EL-4 IC50",4.37 ng/mL
same,IC50,"[11]; Mus musculus, Splenocyte, 72 h",5.76 ng/mL
CC(C)=CCOc1ccc(-c2cc(C)c(-c3ccc(O)cc3)cc2C)cc1O [Compound I-525],ConA IC50,[9],0.76 ng/mL
same,EL-4 IC50,[10],5.0 ng/mL
same,LPS IC50,[11],1.11 ng/mL
same,Suppressive rate of antigen-specific IgE,[12],>95%
